Test systems include UACC-62 melanoma; SN12C renal; SK-MEL-2 melanoma; KM12 colon; LOX IMVI melanoma; NCI-H522 lung; A549 NSCLC; HS 578T breast.
Holding throughout (assay): DTP human tumour cell line panel, 48 h

By GI50 is commonly meant the concentration at which growth is held to half of that of the control. For orientation: TGI means the concentration giving total growth inhibition. A higher TGI goes with less potent growth arrest.

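Method: 48-hour compound exposure of cells in 96-well plates, five concentrations, linear interpolation of endpoints. At the GI50, growth is halved. TGI: total growth inhibition.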

Take `C(#Cc1ccccc1C#Cc1ccccn1)c1ccccn1`: the GI50 was 14.7 µM with UACC-62 melanoma; 18.1 µM in the assay on SN12C renal; 18.4 µM in the assay on SK-MEL-2 melanoma; 11 µM with KM12 colon; 15.4 µM with LOX IMVI melanoma; 16.3 µM in the assay on NCI-H522 lung. Moreover, the GI50 in the assay on A549 NSCLC was 20.5 µM. Further, the concentration for total growth inhibition (TGI) in the assay with UACC-62 melanoma is 28.6 µM; in the assay on SN12C renal, 35.1 µM; in the assay with SK-MEL-2 melanoma, 36 µM; in the assay with KM12 colon it was 22.9 µM; with LOX IMVI melanoma, 30.9 µM; in the assay with NCI-H522 lung, 36.3 µM. The same compound yielded a total growth inhibition concentration (TGI) with A549 NSCLC of 44.3 µM.
For the compound `C[C@H]1CCC/C=C/[C@@H]2C[C@H](O)C[C@H]2[C@H](O)[C@@H](SC2OC(CO)C(O)C(O)C2O)CC(=O)O1` (some centres not stated), the GI50 in the assay with UACC-62 melanoma is 33.6 µM; with SN12C renal, more than 100 µM; in the assay with SK-MEL-2 melanoma, more than 100 µM; in the assay with KM12 colon, 30.3 µM; with LOX IMVI melanoma it was 35.7 µM; with NCI-H522 lung, more than 100 µM. Besides, the GI50 in the assay on A549 NSCLC is more than 100 µM. In addition, the TGI was more than 100 µM in the assay on UACC-62 melanoma; more than 100 µM in the assay on SN12C renal; more than 100 µM with SK-MEL-2 melanoma; 68 µM with KM12 colon; more than 100 µM with LOX IMVI melanoma; more than 100 µM with NCI-H522 lung. Besides, the TGI in the assay with A549 NSCLC is more than 100 µM.
With `O=C(c1ccccc1)c1ccccc1C(=O)c1ccccc1`, the GI50 with UACC-62 melanoma was 29.7 µM; with SN12C renal, more than 100 µM; in the assay with SK-MEL-2 melanoma, 58.6 µM; with KM12 colon, 36.2 µM; in the assay with LOX IMVI melanoma it was 46 µM; in the assay on A549 NSCLC, 50 µM. For the same compound, the TGI in the assay with UACC-62 melanoma, in the assay with SN12C renal, in the assay with SK-MEL-2 melanoma, in the assay on KM12 colon, in the assay on LOX IMVI melanoma and in the assay with A549 NSCLC was more than 100 µM each time.
Turning to `Cc1nc2sc(C(=O)Nc3cccc(Cl)c3C)c(N)c2cc1C(C)O` (configuration not stated), the concentration for 50% growth inhibition (GI50) is 0.0852 µM in the assay on UACC-62 melanoma; 0.916 µM in the assay with SN12C renal; 0.175 µM with KM12 colon; 0.274 µM in the assay on LOX IMVI melanoma; 0.182 µM in the assay with HS 578T breast; 0.112 µM in the assay with NCI-H522 lung. Also, the GI50 in the assay on A549 NSCLC is 0.246 µM. Besides, the concentration for total growth inhibition (TGI) with UACC-62 melanoma is 44.9 µM; in the assay on SN12C renal it was more than 47.4 µM; with KM12 colon it was more than 41.1 µM; in the assay on LOX IMVI melanoma it was more than 44.1 µM; in the assay on HS 578T breast it was more than 74.9 µM; with NCI-H522 lung, 5.96 µM. The compound further had a concentration for total growth inhibition (TGI) with A549 NSCLC of more than 61.8 µM.
Regarding `N=C1C(c2nc(-c3ccc(Br)cc3)cs2)=C(O)CN1CC1CCCO1` (configuration not stated), the GI50 in the assay with UACC-62 melanoma, with SN12C renal, in the assay on SK-MEL-2 melanoma, in the assay on KM12 colon and with A549 NSCLC was more than 100 µM throughout. Besides, the TGI in the assay on UACC-62 melanoma, in the assay with SN12C renal, in the assay with SK-MEL-2 melanoma, in the assay with KM12 colon and in the assay with A549 NSCLC was more than 100 µM throughout.
As for `CC(C)=CCC/C(C)=C/[C@H]1OC(=O)CC12C[C@H](O)C=CC2=O` (some centres not stated), the GI50 was 1.34 µM in the assay on UACC-62 melanoma; 0.529 µM in the assay with SN12C renal; 1.74 µM with SK-MEL-2 melanoma; 0.777 µM in the assay with KM12 colon; 1.81 µM in the assay with HS 578T breast; 1.19 µM in the assay on NCI-H522 lung. Also, the GI50 with A549 NSCLC is 2.08 µM. For the same compound, the total growth inhibition concentration (TGI) in the assay on UACC-62 melanoma was 2.68 µM; in the assay with SN12C renal, 2 µM; with SK-MEL-2 melanoma it was more than 45.1 µM; in the assay on KM12 colon, 2.67 µM; in the assay with HS 578T breast, 5.02 µM; in the assay with A549 NSCLC it was 15.8 µM.
As to `Cc1cc(Cl)ccc1NC(=O)NC(C)(C)COC(=O)Nc1cccc(Cl)c1`, the GI50 in the assay on UACC-62 melanoma is 4.73 µM; in the assay with SN12C renal it was 7.14 µM; in the assay on SK-MEL-2 melanoma, 8.08 µM; with KM12 colon, 3.78 µM; in the assay on HS 578T breast it was 5.65 µM; in the assay on A549 NSCLC it was 5.05 µM. Moreover, the TGI in the assay on UACC-62 melanoma is more than 100 µM; with SN12C renal, more than 100 µM; with SK-MEL-2 melanoma, 34.1 µM; with KM12 colon, 17.6 µM; in the assay on HS 578T breast, 39 µM; in the assay with A549 NSCLC, 66.4 µM.
Regarding `CN(C)c1ccc(N=C(C#N)c2nc(N)nc(N3CCN(c4ccccc4)CC3)n2)cc1`, the GI50 in the assay with UACC-62 melanoma was more than 50 µM; with SN12C renal it was more than 50 µM; in the assay on SK-MEL-2 melanoma, more than 50 µM; with KM12 colon, 49.6 µM; with LOX IMVI melanoma, 19.6 µM; with NCI-H522 lung, more than 50 µM. For the same compound, in the assay with A549 NSCLC, the GI50 is 15.3 µM. For the same compound, the TGI is more than 50 µM in the assay on UACC-62 melanoma; more than 50 µM in the assay with SN12C renal; more than 50 µM in the assay on SK-MEL-2 melanoma; more than 50 µM with KM12 colon; more than 45.1 µM in the assay with LOX IMVI melanoma; more than 50 µM in the assay with NCI-H522 lung. For the same compound, the TGI with A549 NSCLC was more than 34.2 µM.
Regarding `CCCNc1cccc(-n2ncc3c(N/N=C/c4ccncc4)ncnc32)c1`, the GI50 with UACC-62 melanoma is more than 7.76 µM; with SN12C renal, more than 25 µM; with SK-MEL-2 melanoma, 1.49 µM; in the assay with KM12 colon, 1.77 µM; in the assay with HS 578T breast, 1.1 µM; in the assay on NCI-H522 lung it was 1.44 µM. Besides, in the assay with A549 NSCLC, the GI50 was more than 7.61 µM. For the same compound, the TGI in the assay on UACC-62 melanoma, in the assay with SN12C renal, in the assay on SK-MEL-2 melanoma, in the assay on KM12 colon, with HS 578T breast and with NCI-H522 lung was more than 25 µM each time. The compound also registered a TGI in the assay with A549 NSCLC of more than 25 µM.
`COc1cc(CC2CC(c3ccc4c(c3)OCO4)OC2=O)cc(OC)c1OC` (configuration not stated): the TGI in the assay with UACC-62 melanoma, in the assay on SN12C renal, in the assay on KM12 colon, in the assay with LOX IMVI melanoma, in the assay with HS 578T breast and in the assay on A549 NSCLC was more than 100 µM each time.
Turning to `CCN(CC)CCOc1nc2cc(OC)c(OC)cc2c2c1-c1ccc(OC)cc1C2=O`, the GI50 with UACC-62 melanoma was 15.5 µM; in the assay on SN12C renal it was 5.29 µM; in the assay with KM12 colon it was 1.51 µM; with LOX IMVI melanoma, 1.27 µM; in the assay with HS 578T breast, 20.4 µM; with NCI-H522 lung, 0.312 µM. Further, the GI50 in the assay with A549 NSCLC was 1.48 µM. The TGI in the assay on UACC-62 melanoma came out at 36.3 µM; with SN12C renal it was 21.1 µM; in the assay on KM12 colon, 2.87 µM; in the assay with LOX IMVI melanoma, 2.7 µM; with HS 578T breast, 44.9 µM; in the assay on NCI-H522 lung, 18.7 µM. Further, the TGI in the assay with A549 NSCLC was determined as 2.87 µM.

These data come from PubChem BioAssay (NCI).
